Reference: patent US5628328A, “Method for measuring muscle mass” (priority 1995, dated 1997)
Read-outs that look alike come from different tables or passages of the source.

Key:
[1] = Nishizawa et al.; cited from earlier work
[2] = cited from earlier work
[3] = sheep, cited from earlier work
[4] = parameters: species or system cattle; settings: bovine, in vivo
Description: For cattle, the same three-compartment model was used as described herein. With respect to sheep, the model differs from that shown in FIG. 1 in that de novo production of 3-methylhistidine is shown in compartment 2 and additionally, exit from compartment 3 occurs as well as from compartment 1 into urine. With respect to swine, again, de novo production of 3-methylhistidine is shown in compartment 2, and exit to urine is from compartment 3.
Urinary 3-methylhistidine may be used in cattle and humans as an index of muscle protein breakdown but is invalid for use in pigs and lambs. […] Previously, in validating urinary 3-methylhistidineas an index of muscle proteolysis, researchers have injected ^14 C-3-methylhistidine intravenously and recovered the tracer in urine but have never described its decay in plasma. In constructing the 3-compartment model, we kept in mind known physiology of 3-methylhistidine. It has been established that there are pools of 3-methylhistidine in plasma, in other extracellular fluid pools, within muscle and in other tissues. […] Based on comparison of fits, a 3-compartment model was the best model to describe the metabolism of 3-methylhistidine; however, 2- and 4-compartment models as well as other configurations were also evaluated. […]

[5] = parameters: species or system human; settings: in vivo
Description: Normal volunteers with no evidence or history of diabetes mellitus or of cardiac, liver, renal or pulmonary diseases were studied. The subjects consisted of 3 males and 1 female, ranging in age from 31 to 37 years, in body weight from 47 to 92 kg, and in body mass index (BMI) from 19.2 to 25.5. The purpose and possible risks of the study were explained to all subjects, and their voluntary written consent was obtained. The study protocol was approved by the Committee for the Protection of Human Subjects of the Institutional Review Board at Vanderbilt University School of Medicine. All studies were performed at the Clinical Research Center (CRC). Subjects were placed on balanced weight-maintenance diets for at least one week before the start of the study. Meat was excluded from the subjects' diets for three days before the study and during the study.
All studies were performed after a 10-12 hour overnight fast. On the morning of the experiment (6.30 to 7.00 hours), an 18-gauge Angiocatheter™ (Benton Dickinson, Sandy, Utah) was placed in a superficial hand vein of the nondominant arm for blood sampling. The hand was heated to 55° C. to ensure complete arterialization (Abumrad, N.N. et al., "Use of a heated superficial hand vein as an alternative site for the measurement of amino acid concentrations and for the study of glucose and alanine kinetics in man," Metabolism (1981) 30:936-940). In addition, a 16-gauge angiocatheter was inserted into the contralateral forearm vein for the infusion of L-3-[methyl-^2 H3 ]-histidine (MSD Isotopes, Montreal, Canada). Finally, another catheter was threaded retrograde into the brachial vein of the dominant arm and used for sampling of the forearm tissue.
Each study was four days in duration. Starting at t=0 (8.00 hours), subjects were administered a bolus infusion of L-3-[methyl^2 H3 ]-histidine (D3 -3-methylhistidine) at 0.13 μmol/kg into the forearm vein of the dominant arm. The infusate was passed through a Millex-GS sterilizing filter (0.22 μm; Millipore Products Divisions, Bedford, Mass.) before the infusion. Blood samples were obtained from the superficial hand vein and from the deep forearm vein at 0, 1, 2, 5, 10, 15, 30, 45, 90, 150, 210, 270, 330, and 720 min. postinjection. During this time, the subjects were required to stay at the Clinical Research Center, although they were allowed to ambulate freely within their rooms. Free access to food and drink was allowed after the 330-min sample. After 720 min, the catheters were removed and the patients were allowed to go home. For the following three days, the subjects returned to the CRC each morning before eating for further blood sampling by percutaneous venous puncture at 1,440, 2,880, and 4,320 min postinjection. Urine was collected over 24 hour periods the day before and for three days after tracer infusion.
Blood was collected in heparinized syringes, transferred to tubes containing Na2 EDTA (15 mg/tube), and centrifuged. The plasma obtained was immediately placed on ice. An aliquot of the plasma was processed for determination of 3-methylhistidine concentration as well as the L-3-[methyl-^2 H3 ]-histidine:3-methylhistidine isotope enrichment. The remainder of the plasma was frozen at -70° C. The urine obtained was processed for the determination of creatinine both as a measure of the completeness of the collection (Pencharz, P. B. et al., "The effect of an energy-restricted diet on the protein metabolism of obese adolescents: nitrogen-balance and whole-body nitrogen turnover," Clin. Sci. (1980) 59:13-18), and for the estimation of lean body mass (Blackburn, G. L. et al., "Nutritional and metabolic assessment of hospitalized patients," J. Parenter. Enteral. Nutr. (1977) 1:11-22). […]

[6] = cattle; cited from earlier work

Model 3-methylhistidine production versus urinary production [4]: qualitatively similar
3MH Production [5]: 3.1 µmol/kg/day
L0,1 fractional transfer rate [5]: .004 min⁻¹
L1,2 fractional transfer rate [5]: .06 min⁻¹
L2,3 fractional transfer rate [5]: .002 min⁻¹
L3,2 fractional transfer rate [5]: .009 min⁻¹
M1, compartment mass [5]: 603 nmol/kg
M2, compartment mass [5]: 912 nmol/kg
M3, compartment mass [5]: 7938 nmol/kg
R01 mass transfer rate [5]: 2.2 nmol/kg/min
R12 mass transfer rate [5]: 53 nmol/kg/min
R21 mass transfer rate [5]: 51 nmol/kg/min
R23 mass transfer rate [5]: 9.6 nmol/kg/min
R32 mass transfer rate [5]: 7.9 nmol/kg/min
Size of compartment 2 relative to compartment 1 [5]: 1.5 times
Size of compartment 3 relative to compartment 1 [5]: 13 times
Urinary 3MH loss [5]: 100 % of total
SMILES: Cn1cnc(C[C@H](N)C(=O)O)c1 [3-methylhistidine]
Contribution of skin and intestine to total body pool of 3-methylhistidine [1]: up to 10%
3-methylhistidine excretion during exercise ([2]; humans): insignificant increase
3-methylhistidine excretion during recovery from exercise ([2]; humans): significant increase
Urinary excretion ([2]; man): quantitatively excreted in the urine
3-methylhistidine excreted in urine [3]: approximately 15%
Urinary excretion ([3]; retained in muscle as balenine): not quantitatively excreted in urine
Plasma levels of 3-methylhistidine over time [5]: did not change over the four days of the study
Urinary excretion [6]: quantitatively excreted in the urine
